Holding throughout (format): biochemical
The target of assay [1] is T1, UDP-glucose 4'-epimerase (Saccharomyces cerevisiae, UniProt P04397). The experiment in a line: Stability (rel. activity) of the epimerase in the presence of various donors and acceptors of GalT. As to conditions: for inactivation of the epimerase (in words): donors and acceptors of GalT, acceptors in the presence of UMP. On the procedure:
893 μl of 100 mM glycine buffer, pH 8.8
In order to examine the thesis that the inactivation of the epimerase can occur in association with many applications, the stability of the epimerase was tested in the presence of various donors and acceptors of GalT.
P: 200 mM HepesNaOH, pH 7.2, 1 mM DTT, 1 mg/ml BSA, 25 mM KCl containing
R: Activity following reactivation of the epimerase with
dTDP6-deoxy-D-xylo-4-hexulose (c = 0.1 mM)

Assay [2] addresses T1, UDP-glucose 4'-epimerase. In words: Reactivation of the inactivated epimerase with activator. As to conditions: for time after which renewed inactivation of the epimerase is observed: activator 0.1 mM, galactose and UMP still present in the mixture. On the procedure:
Both dUDP-6-deoxy-D-xylo-4-hexulose and dTDP-6-deoxy-D-xylo-4-hexulose, and also 6-deoxyglucosone, galactosone, allosone and glucosone, were used for reactivating the epimerase.
2. Inactivation of the epimerase
1 mg/ml bovine serum albumin (BSA)
3. Activation of the epimerase
160 μl of inactivated epimerase
40 μl of activator (different concentrations)

Assay [3] deals with T1, UDP-glucose 4'-epimerase. In words: Inactivation of the epimerase by sugar in the presence of UMP. As to conditions: 500 mM sucrose, 0.1 mM UMP, Hepes pH 7.2, 30° C., 8 hours. On the procedure:
A: 200 mM Hepes pH 7.2, 1 mM DTT, 1 mg/ml BSA B: 200 mM Hepes pH 7.2, 1 mM DTT, 1 mg/ml BSA, 500 mM sucrose A. Buffer solution A B. Buffer solution A, 0.1 mM UMP C. Buffer solution B D. […] Incubation temperature: 30° C. Activity test: (Fukusawa et al., J. Biol. Chem. 255, 2705-2707 (1980)) | 893 μl of 100 mM glycine buffer, pH 8.8 | 20 μl of 5 mM UDP-Gal | 20 μl of 50 mM NAD […] |33.3 μl of epimerase Temperature: 25° C. Measurement at 340 nm

[4] abbreviates: 2 h, acceptor 50 mM, buffer P pH 7.2 containing 0.1 mM UMP, read-out: Rel. activity of the epimerase, incubation time 2h.
Setting [5] is: acceptor 50 mM, buffer P pH 7.2 containing 0.1 mM UMP.
Setting [6] is: 2 h, pH 7.2, read-out: Rel. activity of the epimerase, incubation time 2h.
The mark [7] stands for this setting: inactivated epimerase plus activator, different concentrations.

Molecules are shown by their SMILES. Entries after “also recorded” stand apart in the source; their conditions may differ. Read-outs that look alike come from different tables or passages of the source.

T1 sequence (P04397 whole entry): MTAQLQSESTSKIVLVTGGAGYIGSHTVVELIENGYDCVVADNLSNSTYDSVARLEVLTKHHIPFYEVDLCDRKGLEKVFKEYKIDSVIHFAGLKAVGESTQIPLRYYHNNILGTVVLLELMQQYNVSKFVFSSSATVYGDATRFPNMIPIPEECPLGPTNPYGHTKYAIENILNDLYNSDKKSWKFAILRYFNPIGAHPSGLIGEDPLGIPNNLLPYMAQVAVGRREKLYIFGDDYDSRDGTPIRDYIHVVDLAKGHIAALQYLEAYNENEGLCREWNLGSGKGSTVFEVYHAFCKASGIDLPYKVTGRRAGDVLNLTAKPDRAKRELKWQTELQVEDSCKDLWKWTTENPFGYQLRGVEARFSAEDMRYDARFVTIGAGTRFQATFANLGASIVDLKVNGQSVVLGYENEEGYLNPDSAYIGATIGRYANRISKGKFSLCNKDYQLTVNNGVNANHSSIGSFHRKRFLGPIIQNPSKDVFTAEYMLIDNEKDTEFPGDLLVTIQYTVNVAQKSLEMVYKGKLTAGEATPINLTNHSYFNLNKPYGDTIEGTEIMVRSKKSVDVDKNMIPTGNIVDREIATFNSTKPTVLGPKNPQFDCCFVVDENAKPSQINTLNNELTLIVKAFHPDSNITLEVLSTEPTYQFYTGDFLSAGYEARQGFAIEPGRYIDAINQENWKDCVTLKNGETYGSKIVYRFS

`CC(=O)N[C@H]1C(O)O[C@H](CO)[C@@H](O)[C@@H]1O` (stereo partly shown) [GlcNAc, N-acetylglucosamine]: the activity at 50000 µM on UDP-glucose 4'-epimerase [1] (setting [4]) worked out at 93.6%. Also, on UDP-glucose 4'-epimerase [1] (setting [5]), the “Rel. activity of the epimerase, incubation time 7h” value (shortened to “Rel. activity of the epimerase”) came to 97.5.
Take `OC[C@H]1OC(O)[C@H](O)[C@@H](O)[C@H]1O` (stereo partly shown) [galactose]: on UDP-glucose 4'-epimerase [2] (50 mM galactose, 0.1 mM UMP, 0.25 mg/ml epimerase, 2 h at 30° C.), the “measured activity of the epimerase after inactivation” value is listed as 3%.
As for `OC[C@H]1O[C@@](CO)(O[C@H]2O[C@H](CO)[C@@H](O)[C@H](O)[C@H]2O)[C@@H](O)[C@@H]1O` [sucrose], the “inactivation of the epimerase (in words)” value on UDP-glucose 4'-epimerase [3] is given as “inactivated”.
Consider `OC[C@H]1OC(O)[C@H](O)[C@@H](O)[C@@H]1O` (stereo partly shown) [Glc, glucose], for which, at UDP-glucose 4'-epimerase [1] (setting [6]), the activity at 50000 µM amounted to 15.8%. In addition, the “inactivation of the epimerase (in words)” value at UDP-glucose 4'-epimerase [1] is listed as “inactivated”.
As for `C[C@H]1O[C@H](OP(=O)(O)OP(=O)(O)OC[C@H]2O[C@@H](n3ccc(=O)[nH]c3=O)C[C@@H]2O)[C@H](O)[C@@H](O)C1=O` [dUDP-6-deoxy-D-xylo-4-hexulose], at UDP-glucose 4'-epimerase [2], the “reactivation of the epimerase (in words)” value is “can be used to reactivate; also recorded: successfully employed to reactivate the epimerase” and the “time after which renewed inactivation of the epimerase is observed” value was found to be 32 h. Also, the “activation of the epimerase (in words)” value at UDP-glucose 4'-epimerase [2] (1 mM activator, activity monitored over […]) was “rapid activation of the epimerase, with the activation being stable over the period of observation”. The “activation of the epimerase (in words)” value at UDP-glucose 4'-epimerase [2] (setting [7]) is “rapid and long-lasting activation”.
For `CCCCCCCCOC1O[C@H](CO)[C@@H](O)[C@H](O)[C@H]1O` (stereo partly shown) [n-Octylglucopyranoside, n-octylglucopyranoside], the activity at 50000 µM came out at 86.1% at UDP-glucose 4'-epimerase [1] (setting [4]) and 29.3% on UDP-glucose 4'-epimerase [1] (8 h, acceptor 50 mM, buffer P pH 7.2 containing 0.1 mM UMP, read-out: Rel. activity of the epimerase, incubation time 8h). The “Rel. activity of the epimerase” value at UDP-glucose 4'-epimerase [1] (setting [5]) is listed as 75.6. For the same molecule, on UDP-glucose 4'-epimerase [1], the “inactivation of the epimerase (in words)” value is reported as “inactivated”.
Consider `Cc1cn([C@H]2C[C@H](O)[C@@H](COP(=O)(O)OP(=O)(O)O[C@H]3O[C@H](C)C(=O)[C@H](O)[C@H]3O)O2)c(=O)[nH]c1=O` [dTDP-6-deoxy-D-xylo-4-hexulose], for which, on UDP-glucose 4'-epimerase [2], the “reactivation of the epimerase (in words)” value is “can be used to reactivate” and the “time after which renewed inactivation of the epimerase is observed” value is 32 h. For the same molecule, the “activation of the epimerase (in words)” value at UDP-glucose 4'-epimerase [2] (setting [7]) is “rapid and long-lasting activation”.
For the molecule `OC[C@H]1OC(O)C[C@@H](O)[C@@H]1O` (stereo partly drawn) [2-Deoxyglc, 2-deoxy-D-glucose], the activity at 50000 µM at UDP-glucose 4'-epimerase [1] (setting [6]) came to 20.7%. Moreover, the “inactivation of the epimerase (in words)” value at UDP-glucose 4'-epimerase [1] is given as “inactivated”.
As to `OC[C@H]1SC(O)[C@H](O)[C@@H](O)[C@@H]1O` (stereo partly drawn) [Thioglc, 5-thio-D-glucose], the activity at 50000 µM at UDP-glucose 4'-epimerase [1] (setting [4]) was 87.9%. Further, at UDP-glucose 4'-epimerase [1] (setting [5]), the “Rel. activity of the epimerase” value amounted to 34.3. Further, on UDP-glucose 4'-epimerase [1], the “inactivation of the epimerase (in words)” value is listed as “inactivated”.

Values taken from patent US5962275A, “Method for the enzymatic galactosylation of monosaccharides and oligosaccharides” (Hoechst Aktiengesellschaft, priority 1995, dated 1999).
